In data set [1] the test system is C57BL/6 responder splenocytes from WT mice. Briefly: One-way mixed lymphocyte reaction (MLR), [3H]-thymidine incorporation, wild-type responder splenocytes. The format is cell-based, mouse. The settings on record: for Inhibition of the MLR: WT splenocytes, agonist 16 and 32 μM, 3 h. As for the experimental part:
The MLR assay is a common method used to evaluate the cellular immune responses from two different individuals or animals and is considered to be an in vitro correlate of skin and organ transplant rejection. Lymphocytes from two different populations can be incubated together in which the T cells recognize the foreign cells from the other strain, become activated, proliferate and take up tritiated thymidine ([^3H]-thymidine). Results from this assay (Examples 1, 2 and 4) are expressed as a Suppression Index (SI), where untreated spleen cells are given a value of 1.00 (100%), and responses of cultures receiving treatment with cannabinoids are calculated as: […]
All SI data were transformed to normalized ranks to accommodate non-normality of the data. ANOVA was used to test for significant differences between groups.
The aim of the next series of experiments was to test the hypothesis that suppression of proliferation in the MLR is a CB2 receptor-mediated function.
In general terms: Incorporation of labelled thymidine or its analogues reports DNA synthesis.

The subject of the next data set is MLR culture cells. The experiment in a line: Cell viability in MLR cultures by flow cytometry (LIVE/DEAD stain). The settings on record: parallel MLR cultures. Format: cell-based, mouse. The protocol: Lastly, cultures were run in parallel with each experimental MLR and tested by flow cytometry to assess viability using LIVE/DEAD® Fixable Dead Cell Stain Kit (Molecular Probes, Inc.; Eugene, Oreg.). Cells (1×10^6) from the culture were resuspended in 1 ml FCM Staining Buffer and incubated for 30 min at room temperature with 1 μl dead cell stain. Cells were washed twice and resuspended in FCM staining buffer and analyzed using an LSRII (BD Biosciences) flow cytometer, and the data were analyzed using FACSDiva™ software (BD Biosciences).
(In general: In flow cytometry, cells or beads pass a laser one at a time.)

Data set [2] relates to CD3+ cells (T cells) and CD11b+ cells. Format: cell-based, mouse. The following applies: 1-32 μM, 3 hours, fractions added back.
Another data set has as its system CD3+ T-cell population. The experiment in a line: mRNA expression (microarray/qPCR) in CD3+ T-cells from the MLR. The following applies: 32 μM/ml, 18 hours, vs vehicle. Format: cell-based, mouse. As for the experimental part: This experiment was carried out to screen for molecules that are modulated by exposure of mouse spleen cells to the CB2 receptor agonist (FIG. 6). The experiment used a commercial microarray (Qiagen) that tests the levels of 89 different mRNAs. Spleen cells were placed in culture to carry out a standard Mixed Lymphocyte Reaction (MLR) assay. Experimental wells received 32 μM/ml of the selective CB2 receptor agonist, O-1966, and control wells received vehicle (0.4% ethanol). […] The decrease in CD40L and Cyclin D3 mRNA was significant because CD40L is an activation molecule for T-cells, and Cyclin D3 is a molecule involved in cell division. T-cell activation and division are decreased after exposure to the selective CB2 receptor agonist.

A further data set deals with IL-10 release in the MLR. Briefly: IL-10 release in the MLR. Format: cell-based, mouse. The settings on record: 32 μM, supernatants after 24 hours. The protocol:
An MLR assay was performed in which experimental wells received 32 μM/ml of O-1966 and control wells received vehicle (FIGS. 7 and 9). Supernatants were collected after 24 hours. […] IL-10 is an immunosuppressive cytokine, so its rise induced by the CB2 receptor agonist provides a mechanism of action for the cannabinoid in suppressing the MLR. In a separate MLR some wells received 1.6 μg/ml of anti-IL-10 antibody. Wells that received no antibody and 32 μM 0-1966 had 90% suppression of proliferation compared to untreated cells. Cells that were treated with anti-IL-10 antibody and 32 μM O-1966 had 43% suppression of proliferation compared to wells that received anti-IL-10 antibody only.

The next data set deals with Tregs. Briefly: Tregs (Foxp3+ CD4+) in the MLR by flow cytometry. The format is cell-based, mouse. The following applies: 48 hours. The protocol: An MLR assay was performed in which experimental wells received 32 μM/ml of O-1966 and control wells received vehicle (FIG. 8). At 48 hours, cells were harvested and stained for expression of Foxp3 and CD4 (Cells that are double positive for these two markers are considered Tregs). Cells were analyzed for marker expression by flow cytometry. Wells that received no treatment had 2.1%+/−0.14 Tregs compared to wells that were treated with 32 μM O-1966 which had 4.3%+/−0.27 Tregs. These differences were statistically significant, as 20,000 cells were counted in each group. Tregs are a relatively newly recognized subset of T-cells that suppress T-cell immune responses. Thus, an increase their number induced by the CB2 receptor agonist provides a second mechanism by which the cannabinoid is altering T-cell responsiveness in the MLR assay.
An MLR was performed in which some wells received 1.6 μg/ml of anti-IL-10 antibody (FIG. 10). Cells were harvested at 48 hours and stained as described under #3 above for Tregs. Cells that received 32 μM O-1966 and no anti-IL-10 antibody had 4.3%+/−0.28 Tregs. Wells that received only anti-IL-10 antibody and no O-1966, had 1.7%+/−0.16 Tregs. Wells that received anti-IL-10 antibody in addition to 32 μM O-1966 had 2.9%+/−0.25 Tregs.

For data set [3], the system named is C57Bl/6 mice with skin grafts from C3HeB/FeJ mice. Briefly: Skin graft rejection in mice. Format: in vivo, mouse. The settings on record: 5 mg/kg intraperitoneal every other day for 14 days. As for the experimental part:
Groups of C57Bl/6 mice received skin grafts from C3HeB/FeJ mice that are histoincompatible (FIG. 11). Starting one hour before grafting mice were treated by intraperitoneal injection with either 5 mg/kg of the CB2 receptor agonist, O-1966, or vehicle. (Volumes were based on weight. but were usually approximately 0.2 ml.) every other day for 14 days, and monitored for graft rejection. Mice that received O-1966 treatment had viable grafts 2.7 days longer than vehicle treated mice, which was statistically significant.

Data set [4] relates to splenocytes from skin graft recipient mice. Briefly: Ex vivo MLR of splenocytes from treated skin graft recipient mice. Also on record: species or system mouse. The following applies: 5 mg/kg every other day 14 days; spleens day 14; 48 hr in culture. As for the experimental part: Splenocytes from O-1966 treated skin graft recipient mice have decreased proliferation in an ex vivo MLR. (FIG. 12). Groups of mice received skin grafts and were treated with either 5 mg/kg O-1966 or vehicle every other day for 14 days. Spleens were removed on day 14 and placed in an MLR assay. The cells were restimulated in vitro with splenocytes from an incompatible mouse strain, but they received no additional treatment with a cannabinoid in vitro.

The test system of the next data set is splenic Tregs. The experiment in a line: Splenic Tregs of treated skin graft recipient mice by flow cytometry. Format: in vivo, mouse. The protocol: O-1966 treated mice that received skin grafts have an increased percentage of splenic Tregs. (FIGS. 13 and 14): Spleen cells taken from the animals described in C1 above were harvested from animals, and a sample was immediately analyzed by flow cytometry. Another sample was placed in culture for 48 hours. […] Cells that were harvested after 48 hours in the MLR had 4.75% Tregs in the vehicle treated mice and 9.7% Tregs in the O-1966 treated mice.

Data set [5] in a line: Spleen weight of treated skin graft recipient mice. The following applies: Day 14, 5 mg/kg every other day. The format is in vivo, mouse. From the text: Spleens were removed on Day 14 and weighed. Spleens from vehicle treated mice were 0.093+/−0.01 grams and spleens from O-1966 mice were 0.077+/−0.006 grams. Spleens of untreated mice average 0.072+/−0.009 grams (historical data). The average spleen weight index ([spleen weight/body weight]×100) was 0.46% in vehicle treated mice and 0.38% in O-1966 treated mice.

The subject of data set [6] is IL-2 release from splenocytes from CB2R-/- KO mice. The experiment in a line: IL-2 release in MLR supernatants by ELISA, CB2R-/- KO splenocytes. The settings on record: supernatants at 24 hours.
Data set [7] concerns C57BL/6 responder splenocytes from WT mice. The settings on record: added to unfractionated murine spleen cells; previously shown by the inventors; cited from earlier work.
Another data set has as its system mouse splenocytes. The settings on record: primary and secondary in vitro assays; earlier work of the inventors; cited from earlier work.

Several values for one entry are separate records, joined by “and”; a condition that tells them apart may be missing. Identical values can stand only once. Like-named read-outs stand apart in the source and are kept apart here.

With `CCCn1c(C)c(C(=O)c2cccc3ccccc23)c2ccccc21` [JWH-015, reference compound], the “Inhibition of the MLR” value in data set [1] was “markedly inhibited the MLR”.
Consider `CCCCCCC(C)(C)c1cc(OC)c(C2(O)CCCC(C)C2)c(OC)c1` (centres unmarked) [O-1966, 1-{4-(1,1-Dimeyhyl-heptyl)-2,6-dimethoxy-phenyl}-3-methyl-cyclohexanol], for which, in [1] (32 μM plus 1.6 μg/ml anti-IL-10 antibody, compared to antibody only), the Suppression of proliferation was determined as 43%. The Suppression of proliferation in data set [1] (32 μM, no antibody, compared to untreated cells) is on record as 90%. Also, the “Inhibition of the MLR” value in data set [1] was “markedly inhibited the MLR”. Besides, in the data set with MLR culture cells, the “Effect on cell death (live versus dead cells)” value was “did not affect cell death”. In data set [2], the “SI values, CD3+ treated versus CD11b+ treated fractions” value was “selectively reduced the SI values for cultures in which the CD3^+ cells were treated”. Besides, in the data set on CD3+ T-cell population, the “CD40L mRNA expression” value is given as −4.60 fold, the “Cyclin D3 mRNA expression” value is given as −4.10 fold, the “IL-10 mRNA expression” value was 4.74 fold and the “Sla2 mRNA expression” value was determined as 4.75 fold. In addition, the “Socs5 mRNA expression” value in the data set with CD3+ T-cell population is reported as 4.37 fold. Also, in the data set with IL-10 release in the MLR, the “IL-10 release in the MLR” value was found to be 96.75 pg/mL and the “Increase of IL-10 release in the MLR” value turned out to be 2.46 fold. Besides, the “Tregs (Foxp3+ CD4+)” value in the data set with Tregs (32 μM O-1966 plus 1.6 μg/ml anti-IL-10 antibody) worked out at 2.9%+/−0.25. For the same compound, in the data set on Tregs (32 μM, no anti-IL-10 antibody), the “Tregs (Foxp3+ CD4+)” value was 4.3%+/−0.27 and 4.3%+/−0.28. Moreover, the “Viable grafts longer than vehicle treated mice” value in [3] amounted to 2.7 days. For the same compound, the “Decreased proliferation in ex vivo MLR compared to vehicle treated mice” value in data set [4] came out at 50%. Besides, in the data set with splenic Tregs (analyzed immediately after sacrifice, day 14, 5 mg/kg), the “Tregs (CD4+, Foxp3+) of the CD4 cells” value worked out at 32.2%. Also, the “Tregs after 48 hours in the MLR” value with splenic Tregs (ex vivo MLR 48 hours, 5 mg/kg in vivo) worked out at 9.7%. In data set [5], the “Average spleen weight index ([spleen weight/body weight]×100)” value was 0.38% and the Spleen weight is on record as 0.077+/−0.006 grams. For the same compound, the “Inhibition of IL-2 release” value in [6] was “without effect”.
For `CCCCCc1cc(O)c2c(c1)OC(C)(C)[C@@H]1CCC(C)=C[C@@H]21` [THC (Marinol), Δ^9-tetrahydrocannabinol], the “Inhibition of the MLR” value in [7] is “inhibit the MLR”. In the data set with mouse splenocytes, the “Immunosuppression in plaque-formation cell assays” value was “induce dose-related immunosuppression”.
In the case of `CCCCC/C=C\C/C=C\C/C=C\C/C=C\CCCC(=O)NCCO` [anandamide, arachidonoylethanolamide], the “Immunosuppression in plaque-formation cell assays” value in the data set on mouse splenocytes is “induce dose-related immunosuppression”.
Take SR144528 [reference compound]: in data set [1] (antagonist 32-320 μM added 2 h before agonist (16 and 32 μM)), the “Block of suppression of the MLR by JWH-015 and O-1966” value is “blocked suppression”.

The values are drawn from patent publication US9855225B2, “Cannabinoid receptor treatments” (TEMPLE UNIVERSITY OFFICE OF TECHNOLOGY TRANSFER, priority 2011, dated 2018).
